Test results as given in patent US20220340597A1, “HEXAHYDRO-1H-PYRAZINO[1,2-A]PYRAZINE COMPOUNDS FOR THE TREATMENT OF AUTOIMMUNE DISEASE” (Hoffmann-La Roche Inc., priority 2019, published 2022).

Target: T1, hERG channel (Homo sapiens, UniProt Q12809)
T1 construct: expressed in transfected cells; host or cells: CHO (Chinese hamster ovary), CHOhERG
Experiment: hERG channel inhibition assay (patch-clamp, CHOhERG cells)
Assay type: cell-based
Details: for IC50 / IC20: CHOhERG cells, whole-cell patch-clamp; for IC20: human, CHO cells stably expressing hERG (CHOhERG); for hERG IC20/TLR7 IC50 / hERG IC20/TLR8 IC50 / hERG IC20/TLR9 IC50: safety ratio
Method in brief: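 Whole-cell voltage-clamp recordings of IKhERG in CHO cells stably expressing human hERG, stimulated at 0.1 Hz. Compound applied at rising concentrations, each held 3–10 min to reach steady state; current amplitude and kinetics compared with pre-drug control set as 100%.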

T1 sequence (Q12809 whole entry): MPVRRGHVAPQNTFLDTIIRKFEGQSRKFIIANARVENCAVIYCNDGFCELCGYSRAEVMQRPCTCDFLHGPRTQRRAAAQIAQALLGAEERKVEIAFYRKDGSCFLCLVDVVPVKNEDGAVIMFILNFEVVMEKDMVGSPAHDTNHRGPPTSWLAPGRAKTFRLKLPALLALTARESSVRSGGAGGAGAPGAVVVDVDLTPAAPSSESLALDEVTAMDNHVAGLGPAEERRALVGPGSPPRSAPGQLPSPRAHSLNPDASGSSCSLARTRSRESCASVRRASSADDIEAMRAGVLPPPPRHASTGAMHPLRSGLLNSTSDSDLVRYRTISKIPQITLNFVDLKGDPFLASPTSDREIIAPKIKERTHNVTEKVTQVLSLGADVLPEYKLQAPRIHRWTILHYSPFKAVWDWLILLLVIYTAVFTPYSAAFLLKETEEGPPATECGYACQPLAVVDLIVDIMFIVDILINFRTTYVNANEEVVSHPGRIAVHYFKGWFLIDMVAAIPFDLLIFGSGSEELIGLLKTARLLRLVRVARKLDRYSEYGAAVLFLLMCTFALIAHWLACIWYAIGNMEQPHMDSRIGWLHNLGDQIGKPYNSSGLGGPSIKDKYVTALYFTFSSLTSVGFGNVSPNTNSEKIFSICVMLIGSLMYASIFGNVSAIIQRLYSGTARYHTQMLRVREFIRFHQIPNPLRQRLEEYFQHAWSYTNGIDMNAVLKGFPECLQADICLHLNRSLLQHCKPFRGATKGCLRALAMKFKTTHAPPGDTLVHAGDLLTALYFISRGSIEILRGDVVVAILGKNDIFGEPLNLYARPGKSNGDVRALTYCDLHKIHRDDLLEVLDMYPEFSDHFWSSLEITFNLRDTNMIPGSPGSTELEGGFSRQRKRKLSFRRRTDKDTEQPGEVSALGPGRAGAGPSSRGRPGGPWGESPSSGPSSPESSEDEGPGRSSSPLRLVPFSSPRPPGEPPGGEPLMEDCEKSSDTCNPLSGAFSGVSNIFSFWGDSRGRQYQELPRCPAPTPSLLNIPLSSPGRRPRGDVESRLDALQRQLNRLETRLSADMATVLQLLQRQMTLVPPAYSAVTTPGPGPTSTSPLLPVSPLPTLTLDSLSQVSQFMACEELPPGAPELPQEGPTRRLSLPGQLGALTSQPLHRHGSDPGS

SMILES	IC50	IC20	hERG IC20/TLR7 IC50	hERG IC20/TLR8 IC50	hERG IC20/TLR9 IC50
C[C@@H]1CN(c2ccc(C#N)c3ncccc23)C[C@@H]2CN(Cc3ccc4c(c3)CNCC4)CCN21 (relative stereo) [Example 1]	> 20 µM	> 10 µM	>588	>1000	>172
[2H]c1ccc2c(N3C[C@@H]4CN(Cc5ccc(N6CC7(CN(C)C7)C6)nc5C)CCN4[C@H](C)C3)ccc(C#N)c2n1 [Example 80, 5-[(4R,9aS)-4-methyl-8-[[2-methyl-6-(6-methyl-2,6-diazaspiro[3.3]heptan-2-yl)-3-pyridyl]methyl]-3,4,6,7,9,9a-hexahydro-1H-pyrazino[1,2-a]pyrazin-2-yl]-2-deuterio-quinoline-8-carbonitrile]	> 20 µM	> 10 µM	>434	>2000	>312
[2H]c1ccc2c(N3C[C@@H]4CN(Cc5ccc(N[C@H]6CNC[C@H]6F)nc5C)CCN4[C@H](C)C3)ccc(C#N)c2n1 [Example 82, 5-[(4R,9aS)-8-[[6-[[(3S,4R)-4-fluoropyrrolidin-3-yl]amino]-2-methyl-3-pyridyl]methyl]-4-methyl-3,4,6,7,9,9a-hexahydro-JH-pyrazino[1,2-a]pyrazin-2-yl]-2-deuterio-quinoline-8-carbonitrile]	> 20 µM	> 10 µM	>833	>3333	>243
[2H]c1ccc2c(N3C[C@@H]4CN(Cc5ccc(N6CC7CNCC(C6)O7)nc5C)CCN4[C@H](C)C3)ccc(C#N)c2n1 [Example 83, 5-[(4R,9aS)-4-methyl-8-[[2-methyl-6-(9-oxa-3,7-diazabicyclo[3.3.1]nonan-3-yl)-3-pyridyl]methyl]-3,4,6,7,9,9a-hexahydro-1H-pyrazino[1,2-a]pyrazin-2-yl]-2-deuterio-quinoline-8-carbonitrile]	> 20 µM	> 10 µM	>588	>1428	>196
[2H]c1ccc2c(N3C[C@@H]4CN(Cc5ccc(N6C[C@@H]7C[C@H]6CN7)nc5C)CCN4[C@H](C)C3)ccc(C#N)c2n1 [Example 92, 5-[(4R,9aS)-8-[[6-[(1S,4S)-2,5-diazabicyclo[2.2.1]heptan-2-yl]-2-methyl-3-pyridyl]methyl]-4-methyl-3,4,6,7,9,9a-hexahydro-1H-pyrazino[1,2-a]pyrazin-2-yl]-2-deuterio-quinoline-8-carbonitrile]	> 20 µM	> 10 µM	>1666	>1111	>294
Cc1cc(N2CCNCC2)cnc1N1CCN2[C@@H](C1)CN(c1cc(=O)n(C)c3ncccc13)C[C@H]2C [Example 93, 4-[(4R,9aR)-4-methyl-8-(3-methyl-5-piperazin-1-yl-2-pyridyl)-3,4,6,7,9,9a-hexahydro-1H-pyrazino[1,2-a]pyrazin-2-yl]-1-methyl-1,8-naphthyridin-2-one]	> 20 µM	> 10 µM	>1000	>163	>53
[2H]c1ccc2c(N3C[C@@H]4CN(Cc5ccc(N6C[C@H]7NCCO[C@@H]7C6)nc5C)CCN4[C@H](C)C3)ccc(C#N)c2n1 [Example 98, 5-[(4R,9aS)-8-[[6-[(4aR,7aR)-3,4,4a,5,7,7a-hexahydro-2H-pyrrolo[3,4-b][1,4]oxazin-6-yl]-2-methyl-3-pyridyl]methyl]-4-methyl-3,4,6,7,9,9a-hexahydro-1H-pyrazino[1,2-a]pyrazin-2-yl]-2-deuterio-quinoline-8-carbonitrile]	> 20 µM	> 10 µM	>416	>1000	>172
